Laboratory results published in patent US8084456B2, “Pyrazine-based tubulin inhibitors” (YM Biosciences Australia Pty Ltd, priority 2002, dated 2011).

Columns and labels:
[1] = tested on: DU145 (Prostate Cancer) cells; assay: Cellular growth assay (MTT), DU145; format: cell-based; settings: Homo sapiens, DU-145, 40 hr incubation, read-out: DU145 (inhibition of 50% of cellular growth)
Procedure: (§1) K562 (Chronic Myeloid Leukemia), PC3 (Prostate Cancer), and DU145 (Prostate Cancer) were obtained from the American Type Culture Collection (ATCC). K562 was grown in RPMI, with 10% FBS with Glutamx added. DU145 cells were cultured in DMED, with 10% FBS and Glutamx and MEM non-essential amino acids added. PC3 cells were grown in F12K medium, with 10% FBS and Glutamx and MEM non-essential amino acids added. All cells were grown at 37° C. in 5% CO2.

Tubulin = Tubulin assay (turbidometric microtubule assembly); format: biochemical; settings: at 50 μM, absorbance at 340 nm, 37° C.
Procedure: Turbidometric assays of microtubule assembly were performed by incubating microtubule protein in cuvettes at 37° C. in a thermostatically controlled spectrophotometer measuring the change in absorbance at 340 nm over time. The microtubule protein was incubated with the each test compound at 0° C. and polymerisation was initiated by addition of 1 mM GTP, prior to heating to 37° C.

TelJak2 = TelJak2 (Homo sapiens, UniProt O60674); assay: Cellular growth assay (MTT), BaF3 TEL/JAK2 cells; format: cell-based; settings: 40 hr incubation, read-out: TelJak2 (inhibition of 50% of cellular growth)
TelJak2, sequence (O60674 with tags, fused parts or gaps): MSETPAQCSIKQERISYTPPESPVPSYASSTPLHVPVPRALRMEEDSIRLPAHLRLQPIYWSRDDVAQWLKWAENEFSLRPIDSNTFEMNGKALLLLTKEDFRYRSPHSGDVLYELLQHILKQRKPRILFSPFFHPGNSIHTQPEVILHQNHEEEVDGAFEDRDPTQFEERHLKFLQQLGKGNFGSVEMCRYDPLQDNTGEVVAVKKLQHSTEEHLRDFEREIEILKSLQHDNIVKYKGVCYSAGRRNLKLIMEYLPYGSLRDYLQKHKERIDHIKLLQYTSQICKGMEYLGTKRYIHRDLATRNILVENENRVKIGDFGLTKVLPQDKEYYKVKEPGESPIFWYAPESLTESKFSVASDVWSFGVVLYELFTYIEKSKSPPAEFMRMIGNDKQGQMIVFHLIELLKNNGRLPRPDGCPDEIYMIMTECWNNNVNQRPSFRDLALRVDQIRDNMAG

[2] = tested on: PC3 (Prostate Cancer) cells; assay: Cellular growth assay (MTT), PC3; format: cell-based; settings: Homo sapiens, PC-3, 40 hr incubation, read-out: PC3 (inhibition of 50% of cellular growth)
Procedure: as §1

TelJak3 = TelJak3 (Homo sapiens, UniProt P52333); assay: Cellular growth assay (MTT), BaF3 TEL/JAK3 cells; format: cell-based; settings: 40 hr incubation, read-out: TelJak3 (inhibition of 50% of cellular growth)
TelJak3, sequence (P52333 with tags, fused parts or gaps): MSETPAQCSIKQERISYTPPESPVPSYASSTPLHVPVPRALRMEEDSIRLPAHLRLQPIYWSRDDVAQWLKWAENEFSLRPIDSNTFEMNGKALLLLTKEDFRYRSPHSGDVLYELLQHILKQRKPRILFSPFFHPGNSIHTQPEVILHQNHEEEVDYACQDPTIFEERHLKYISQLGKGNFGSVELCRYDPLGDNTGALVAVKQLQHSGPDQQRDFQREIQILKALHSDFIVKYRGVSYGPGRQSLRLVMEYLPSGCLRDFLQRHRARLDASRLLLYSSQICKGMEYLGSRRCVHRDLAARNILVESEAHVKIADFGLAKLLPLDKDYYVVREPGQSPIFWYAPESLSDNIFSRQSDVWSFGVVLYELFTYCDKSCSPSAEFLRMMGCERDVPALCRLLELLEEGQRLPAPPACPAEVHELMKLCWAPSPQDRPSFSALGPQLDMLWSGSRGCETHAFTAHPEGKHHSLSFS

[3] = tested on: K562 (Chronic Myeloid Leukemia) cells; assay: Cellular growth assay (MTT), K562; format: cell-based; settings: Homo sapiens, 40 hr incubation, read-out: K562 (inhibition of 50% of cellular growth)
Procedure: as §1

Row | SMILES | IC50 [1] [µM] | Tubulin (inhibition of tubulin polymerisation) (Tubulin) | IC50 (TelJak2) [µM] | IC50 [2] [µM] | IC50 (TelJak3) [µM] | IC50 [3] [µM]
1 | CCCC(Nc1cncc(-c2ccc(O)c(OC)c2)n1)c1ccccc1 (stereo not drawn) | ≤ 20 | + (inhibited tubulin polymerisation by greater than 50% at 50 μM) | ≤ 20 | ≤ 20 | ≤ 20 | ≤ 20
2 | CCCC(Nc1cncc(-c2ccc(O)c(OC)c2)n1)c1ccc(F)cc1 (stereo not drawn) | ≤ 20 | + (inhibited tubulin polymerisation by greater than 50% at 50 μM) | ≤ 20 | > 20 | ≤ 20 | ≤ 20
3 | CCCC(Nc1cncc(-c2ccc(O)c(OC)c2)n1)c1cccc(F)c1 (stereo not drawn) | ≤ 20 | + (inhibited tubulin polymerisation by greater than 50% at 50 μM) | ≤ 20 | ≤ 20 | ≤ 20 | ≤ 20
4 | CCCC(Nc1cncc(-c2ccc(O)c(OC)c2)n1)c1cccc(O)c1 (stereo not drawn) | > 20 | + (inhibited tubulin polymerisation by greater than 50% at 50 μM) | ≤ 20 | > 20 | ≤ 20 | ≤ 20
5 | CCCC(Nc1cncc(-c2ccc(O)c(OC)c2)n1)c1cccc(C)c1 (stereo not drawn) | ≤ 20 | + (inhibited tubulin polymerisation by greater than 50% at 50 μM) | ≤ 20 | ≤ 20 | ≤ 20 | ≤ 20
6 | CCCC(Nc1cncc(-c2ccc(O)c(OC)c2)n1)c1cc(OC)cc(OC)c1 (stereo not drawn) | ≤ 20 | + (inhibited tubulin polymerisation by greater than 50% at 50 μM) | ≤ 20 | ≤ 20 | ≤ 20 | ≤ 20
7 | CCCC(Nc1cncc(-c2ccc(OC)c(OC)c2)n1)c1ccccc1 (stereo not drawn) | ≤ 20 | + (inhibited tubulin polymerisation by greater than 50% at 50 μM) | ≤ 20 | ≤ 20 | ≤ 20 | ≤ 20
8 | CCCC(Nc1cncc(-c2ccc3c(c2)OCO3)n1)c1ccccc1 (stereo not drawn) | ≤ 20 | + (inhibited tubulin polymerisation by greater than 50% at 50 μM) | ≤ 20 | ≤ 20 | ≤ 20 | ≤ 20
9 | CCCC(Nc1cncc(-c2ccc(O)c(OC)c2)n1)c1c(F)cccc1Cl (stereo not drawn) | ≤ 20 | + (inhibited tubulin polymerisation by greater than 50% at 50 μM) | ≤ 20 | ≤ 20 | ≤ 20 | ≤ 20
10 | CCCC(Nc1cncc(-c2ccc(O)c(OC)c2)n1)c1ccc(C(F)(F)F)cc1 (stereo not drawn) | > 20 | − (did not inhibit tubulin polymerisation by 50% at 50 μM) | > 20 | > 20 | > 20 | > 20
11 | CCCC(Nc1cncc(-c2ccc(O)c(OC)c2)n1)c1cccnc1 (stereo not drawn) | ≤ 20 | + (inhibited tubulin polymerisation by greater than 50% at 50 μM) | ≤ 20 | ≤ 20 | ≤ 20 | ≤ 20
12 | CCC[C@H](Nc1cncc(-c2ccc(O)c(OC)c2)n1)c1cccc(F)c1 | ≤ 20 | + (inhibited tubulin polymerisation by greater than 50% at 50 μM) | ≤ 20 | ≤ 20 | ≤ 20 | ≤ 20
13 | CCCC(Nc1cncc(-c2ccc(O)c(OC)c2)n1)c1cccc(C(F)(F)F)c1 (stereo not drawn) | ≤ 20 | + (inhibited tubulin polymerisation by greater than 50% at 50 μM) | ≤ 20 | ≤ 20 | ≤ 20 | ≤ 20
14 | COc1cc(-c2cncc(NC(CCN3CCN(C)CC3)c3ccccc3)n2)ccc1O (stereo not drawn) | ≤ 20 | + (inhibited tubulin polymerisation by greater than 50% at 50 μM) | ≤ 20 | ≤ 20 | ≤ 20 | ≤ 20
15 | CCCC(Nc1cncc(-c2ccc(O)c(OC)c2)n1)c1cc(C)ccc1C (stereo not drawn) | ≤ 20 | + (inhibited tubulin polymerisation by greater than 50% at 50 μM) | ≤ 20 | ≤ 20 | ≤ 20 | ≤ 20
16 | CCCC(Nc1cncc(-c2ccc(O)c(OC)c2)n1)c1ccc(OC)nc1 (stereo not drawn) | ≤ 20 | + (inhibited tubulin polymerisation by greater than 50% at 50 μM) | ≤ 20 | > 20 | ≤ 20 | ≤ 20
17 | CCCC(Nc1cncc(-c2ccc(NC(C)=O)c(OC)c2)n1)c1ccc(F)cc1 (stereo not drawn) | ≤ 20 | + (inhibited tubulin polymerisation by greater than 50% at 50 μM) | ≤ 20 | ≤ 20 | ≤ 20 | ≤ 20
18 | CCCC(Nc1cncc(-c2cc(C)c(O)c(C)c2)n1)c1ccc(F)cc1 (stereo not drawn) | ≤ 20 | + (inhibited tubulin polymerisation by greater than 50% at 50 μM) | ≤ 20 | ≤ 20 | ≤ 20 | ≤ 20
19 | CCCC(Nc1cncc(-c2cc(C)c(OCCN(CC)CC)c(C)c2)n1)c1ccc(F)cc1 (stereo not drawn) | ≤ 20 | + (inhibited tubulin polymerisation by greater than 50% at 50 μM) | ≤ 20 | ≤ 20 | ≤ 20 | ≤ 20
